The source of these data is PubChem BioAssay AID1259411 (Chemical Carcinogenesis Research Information System (CCRIS), 2018).

The source made the active and inactive calls. The rule behind the calls is not given here.

For the data set, the system named is rodent carcinogenicity bioassays, tumor incidence. As to the kind of experiment: CCRIS carcinogenicity studies. As to conditions: Dose: 0. Put shortly:
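NCI-built, expert-reviewed records of carcinogenicity and related test outcomes (mutagenicity, tumor promotion/inhibition) compiled from published and report sources, historical span 1985-2011, not updated.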

On to `O[C@@H]1c2ccccc2-c2nc3ccccc3cc2[C@H]1O`, for which the carcinogen call is “inactive; negative” (Species: MOUSE, Strain/Sex: SWISS/FEMALE, Route: INTRAPERITONEAL, 1.05 UMOL GIVEN AS 150 NMOL IN 5 µL DMSO WITHIN 24 HR OF BIRTH, 300 NMOL IN 10 µL DMSO ON D 8 OF LIFE, AND 600 NMOL I) and “inactive; negative” (Species: MOUSE, Strain/Sex: SWISS/MALE, Route: INTRAPERITONEAL, 1.05 UMOL GIVEN AS 150 NMOL IN 5 µL DMSO WITHIN 24 HR OF BIRTH, 300 NMOL IN 10 µL DMSO ON D 8 OF LIFE, AND 600 NMOL I).
For the molecule `Oc1ccccc1-c1ccccc1`, the carcinogen call (Species: GUINEA PIG, Strain/Sex: HARTLEY/MALE, Route: ORAL, 2% IN DIET (STUDY DURATION: 48 WK)) is “inactive; negative”; the carcinogen call (Species: HAMSTER, Strain/Sex: SYRIAN/MALE, Route: ORAL, 2% IN DIET (STUDY DURATION: 48 WK)) was “inactive; negative”; the carcinogen call (Species: MOUSE, Strain/Sex: B6C3F1/FEMALE, Route: ORAL, 0.5, 1, 2% IN DIET FOR 96 WK (STUDY DURATION: 104 WK), 0.5, 1, 2% IN DIET FOR 96 WK (STUDY DURATION: 104 WK)) was “inactive; negative”; the carcinogen call (Species: MOUSE, Strain/Sex: B6C3F1/FEMALE, Route: ORAL, 0.5, 1, 2% IN THE DIET FOR 96 WK (STUDY DURATION: 104 WK), 0.5, 1, 2% IN THE DIET FOR 96 WK (STUDY DURATION: 104 WK)) is “inactive; negative”; the carcinogen call (Species: MOUSE, Strain/Sex: B6C3F1/MALE, Route: ORAL, 0.5, 1, 2% IN DIET FOR 96 WK (STUDY DURATION: 104 WK), 0.5, 1, 2% IN DIET FOR 96 WK (STUDY DURATION: 104 WK)) is “inactive; negative”; the carcinogen call (Species: MOUSE, Strain/Sex: B6C3F1/MALE, Route: ORAL, 0.5, 1, 2% IN THE DIET FOR 96 WK (STUDY DURATION: 104 WK), 0.5, 1, 2% IN THE DIET FOR 96 WK (STUDY DURATION: 104 WK)) was “inactive; negative”. The carcinogen call was “inactive; negative” (Species: MOUSE, Strain/Sex: B6C3F1/MALE, Route: ORAL, 2% IN DIET (STUDY DURATION: 48 WK)); “inactive; negative” (Species: MOUSE, Strain/Sex: CD-1/FEMALE, Route: DERMAL, 55.5 MG/ANIMAL IN 0.1 ML ACETONE 3 D/WK FOR 102 WK); “inactive; negative” (Species: MOUSE, Strain/Sex: CD-1/MALE, Route: DERMAL, 55.5 MG/ANIMAL IN 0.1 ML ACETONE 3 D/WK FOR 102 WK); “active; positive” (Species: RAT, Strain/Sex: F344/MALE, Route: ORAL, 0.125, 0.25, 0.5, 1.0, 2.0, 4.0% IN DIET FOR 91 WK, 0.125, 0.25, 0.5, 1.0, 2.0, 4.0% IN DIET FOR 91 WK, Tumor Site: Type of Lesion: KIDNEY: TRANSITIONAL CELL CARCINOMA, URINARY BLADDER: TRANSITIONAL CELL CARCINOMA); “active; positive” (Species: RAT, Strain/Sex: F344/MALE, Route: ORAL, 0.625, 1.25, 2.5% IN PELLET DIET FOR STUDY DURATION (STUDY DURATION: 91 WK), 0.625, 1.25, 2.5% IN PELLET DIET FOR STUDY DURATION (STUDY DURATION: 91 WK), Tumor Site: Type of Lesion: BLADDER: TRANSITIONAL CELL PAPILLOMA, TRANSITIONAL CELL CARCINOMA); “inactive; negative” (Species: RAT, Strain/Sex: F344/MALE, Route: ORAL, 2% IN DIET (STUDY DURATION: 48 WK)). In addition, for the setting “Species: RAT, Strain/Sex: F344/MALE, Route: ORAL, 2% IN DIET FOR 104 WK (STUDY DURATION: 104 WK), Tumor Site: Type of Lesion: BLADDER: CARCINOMA”, the carcinogen call was “active; positive”.
